Laboratory results: US11173147B2, “Prophylactic or therapeutic agent for delirium” (priority 2016, dated 2021)

Columns and labels:
delirium [1] = conditions: five patients diagnosed as having delirium; cited from earlier work
delirium [2] = conditions: of 10 patients over 65 years of age who developed delirium with heart failure etc.; cited from earlier work
Clock mutant mouse = experiment: Effect on phase delay in Clock mutant mouse (rotating basket exercise); type: in vivo; conditions: for % in the initial dark period (rotating basket exercise) / % in the initial dark period (rotating basket exercise), recovery of decrease: vs solvent; for % in the initial dark period (rotating basket exercise): FIG. 3; for exercise starting time: vs average of 7-day preliminary treatment period; for % in the initial dark period (rotating basket exercise), recovery of decrease: FIG. 1
Method: Effect on Phase Delay of Compound A in Clock Mutant Mouse
Male Clock mutant mouse (Trans Genic Inc.) and male ICR mouse (CLEA Japan Inc.) were used as a wild-type control in this study. All animals were bred in groups of 4 or 5 animals per cage in a light control room (lights on at 7:00 and 12 hour light/dark cycle) prior to behavioral test. Food and tap water were freely provided.
21-Week-old and 23-week-old mice were used in experiment 1 and experiment 2 (in each experiment, Clock mutant mouse; n=36, ICR mouse; n=12). In both experiments, the animals were placed in a test room and individually bred under 10 hr/14 hr light/dark cycle (lights on at 7:00 and lights off at 17:00) in a cage provided with a rotating basket (diameter 14.5 cm). In addition, 15 Clock mutant mice and 10 ICR mice were prepared as extra animals in the same room in each experiment. Data on the rotating basket exercise were collected every minute and analyzed using Clocklab (registered trade mark) (Actimetrics, Evanston, Ill., USA).
The animals were first acclimated to a new light/dark cycle for about 2 weeks. In the acclimation period, a total number of exercises in 24 hours (total number) for each day, and the percentage of the number of exercise in the light period (7:00 to 17:00) (percentage in the light period) in the total number were measured.
In the preliminary treatment period, the mice were orally administered with a solvent (0.5% methylcellulose solution) at 15:45-16:19 once daily for 2 weeks for acclimation to administration prior to the drug treatment period. […] The solvent or compound A was orally administered to the animals at 15:45 to 16:13 once a day for 7 days.
In the drug treatment period, % in the initial dark period was measured, and the exercise start time was measured using same as an additional index in the Clock mutant mice. Using the aforementioned parameter, the minimum effective dose of compound A in these experiments (experiments 1 and 2) was determined.
The data are shown in average ±SEM. A statistical significance between ICR mouse and Clock mutant mouse was determined by Student's t-test (experiment 1) or Aspin-Welch test (experiment 2) in which P≤0.05 was significant. For analysis of multiple administration of compound A, the statistical significance was determined by one-sided Williams' 20 test (experiments 1 and 2) in which P≤0.025 was significant.

plasma melatonin = experiment: Effect on nocturnal plasma melatonin concentration in rats; type: in vivo, rat; conditions: Wistar rats, 3 mg/kg orally once per day for 7 days, vs vehicle, FIG. 5
Method: Effect of Compound A on Nocturnal Plasma Melatonin Concentration in Rats
9-Week-old male Wistar rats (CLEA Japan Inc.) were used for this study. All rats (n=12) were bred in groups of 2 to 5 animals per cage in a light control room (lights on at 7:00 and 12 hour light/dark cycle) prior to the test and made to get used to it for about two weeks. Food and tap water were freely provided.
A solvent or compound A was orally administered to 11-week-old rats at a dose of 3 mg/kg once per day at 17:00-17:15 for 7 days. After the final treatment, blood samples (500 μL) were successively collected from the tail artery of each rat at 20:00 (ZT (Zeitgeber Time)) 13), 22:00 (ZT15), 0:00 (ZT17), 2:00 (ZT19), 4:00 (ZT21), 6:00 (ZT23) and 8:00 (ZT25) in EDTA-2Na-containing tube (Lot No. MP0831, CAPIJECT (registered trade mark), Terumo Corporation, Japan). The blood samples were centrifuged at 15,000 rpm, 4° C. for 5 min and the supernatant (200 μL) was preserved at -80° C. until they were treated for radioimmunoassay. Melatonin concentration was measured using a kit (Lot No. 2428.10, BUHLMANN Laboratories AG, Switzerland) commercially available from T.N. TECHNOS., Limited, Japan.
The data are shown in average ±SEM (6 rats in each group). The statistical significance between samples and in samples was determined by repeated measurement ANOVA in which P<0.05 was significant.

Row | SMILES | recovery from delirium symptoms (delirium [1]) | patients in whom delirium was improved (delirium [2]) | % in the initial dark period (rotating basket exercise) (Clock mutant mouse; 0.003 mg/kg orally once a day for 7 days) | % in the initial dark period (rotating basket exercise) (Clock mutant mouse; 0.03 mg/kg orally once a day for 7 days) | exercise starting time (Clock mutant mouse; 0.03 mg/kg repetitive oral administration, FIG. 4) | % in the initial dark period (rotating basket exercise), recovery of decrease (Clock mutant mouse; 0.3 mg/kg orally once a day for 7 days) | exercise starting time (Clock mutant mouse; 0.3 mg/kg repetitive oral administration, FIG. 2) | % in the initial dark period (rotating basket exercise), recovery of decrease (Clock mutant mouse; 1 mg/kg orally once a day for 7 days) | exercise starting time (Clock mutant mouse; 1 mg/kg repetitive oral administration, FIG. 2) | minimum effective dose (phase retardation) (Clock mutant mouse; oral, once a day for 7 days) | level of melatonin concentration (plasma) (plasma melatonin) | start of plasma melatonin (plasma melatonin)
1 | CCC(=O)NCC[C@@H]1CCc2ccc3c(c21)CCO3 [ramelteon, (S)—N-[2-(1,6,7,8-tetrahydro-2H-indeno[5,4-b]furan-8-yl)ethyl]propionamide] | recovered from delirium symptoms the next day | 6 patients |  |  |  |  |  |  |  |  |  | 
2 | CC(=O)NCC[C@@H]1CCc2ccc3nc(C)oc3c21 [compound A, (S)—N-[2-(2-methyl-7,8-dihydro-6H-indeno[5,4-d][1,3]oxazol-8-yl)ethyl]acetamide] |  |  | did not have a significant effect | did not have a significant effect | significantly advanced | improvement effect was significant | significantly advanced | improvement effect was significant | significantly advanced | 0.03 mg/kg | significantly increased | advanced
